Drawing on article PMC3491841 (EMBO Molecular Medicine, 2012), this text covers Kd for one molecule.

SMILES strings stand for the structures.

Common to all, as to assay type: binding
Assay [1] addresses T1, LdTOP1LS (reconstituted heterodimeric topoisomerase IB) (Leishmania donovani, UniProt A0A3Q8IHS4+Q8WQM6).
T1 sequence (A0A3Q8IHS4 1-635): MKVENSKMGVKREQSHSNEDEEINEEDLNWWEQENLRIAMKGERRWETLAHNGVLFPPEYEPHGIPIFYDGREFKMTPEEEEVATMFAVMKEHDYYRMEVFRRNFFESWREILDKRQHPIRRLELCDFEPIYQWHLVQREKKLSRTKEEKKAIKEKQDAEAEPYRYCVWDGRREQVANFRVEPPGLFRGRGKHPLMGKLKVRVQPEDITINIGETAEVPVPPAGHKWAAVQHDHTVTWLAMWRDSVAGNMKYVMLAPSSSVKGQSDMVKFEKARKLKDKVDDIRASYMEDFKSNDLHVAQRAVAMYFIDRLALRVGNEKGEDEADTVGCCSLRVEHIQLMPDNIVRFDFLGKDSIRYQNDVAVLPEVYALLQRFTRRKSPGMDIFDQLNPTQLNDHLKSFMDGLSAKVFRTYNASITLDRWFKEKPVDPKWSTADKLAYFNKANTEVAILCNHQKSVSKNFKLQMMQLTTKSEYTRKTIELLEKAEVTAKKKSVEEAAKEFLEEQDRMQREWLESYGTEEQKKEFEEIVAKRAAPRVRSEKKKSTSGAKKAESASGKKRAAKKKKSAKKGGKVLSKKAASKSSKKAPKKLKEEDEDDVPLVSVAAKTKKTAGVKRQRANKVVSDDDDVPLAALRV
T1 sequence (Q8WQM6 1-262): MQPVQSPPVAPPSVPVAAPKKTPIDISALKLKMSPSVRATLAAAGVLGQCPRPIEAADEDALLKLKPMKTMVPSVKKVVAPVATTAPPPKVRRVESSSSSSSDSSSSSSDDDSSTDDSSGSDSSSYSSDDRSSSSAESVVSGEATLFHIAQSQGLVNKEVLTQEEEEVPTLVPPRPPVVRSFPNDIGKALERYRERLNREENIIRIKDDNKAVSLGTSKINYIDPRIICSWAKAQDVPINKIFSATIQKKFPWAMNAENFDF
Nature of the assay: tryptophan fluorescence quenching.

For assay [2], the target named is T2, LdTOP1L (large subunit of L. donovani topoisomerase IB) (Leishmania donovani, UniProt A0A3Q8IHS4).
T2 sequence (A0A3Q8IHS4 1-635): T1 sequence (A0A3Q8IHS4 1-635)
The assay is described as follows: intrinsic tryptophan fluorescence quenching.

The target in assay [3] is T3, LdTOP1S (small subunit of L. donovani topoisomerase IB) (Leishmania donovani, UniProt Q8WQM6).
T3 sequence (Q8WQM6 1-262): T1 sequence (Q8WQM6 1-262)
Nature of the assay: intrinsic tryptophan fluorescence quenching.

Take `COC[C@@H](Cc1ccc(OC)c(OC)c1)[C@@H](COC)Cc1cc(OC)c2c(c1)OCO2` [niranthin]: the values for the Kd in assay [1], in assay [2] and in assay [3] were 299 ± 160 nM, 372 ± 260 nM and 169 ± 120 nM, respectively.

As usually defined, the Kd is the free concentration of one partner at which half of the binding sites on the other are occupied at equilibrium, for simple one-to-one binding.
